In the supplement of paper PMC10307832:

How the values were obtained:
Assay in all cases: relative viability (nuclei count vs DMSO), 5 days (fraction); higher = more cells survive
[1] = compound: CC1=CC=C(C=C1)C(=O)CN2C3=C(CCCC3)SC2=N [Pifithrin_alpha] + Cc1nc(NC(=O)N2CCC[C@H]2C(N)=O)sc1-c1ccnc(C(C)(C)C(F)(F)F)c1 [Alpelisib] (partner 2 µM)
Procedure, shortened: (§1)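 Cells from lung cancer lines were seeded into 1536-well plates and, one day later, dosed by pin tool. Treatments were either a single drug or a fixed dose of an anchor drug with five library-drug doses (not always all listed) in √10 steps. After 5 days, nuclei were stained in a one-step fixation (final 0.05% Triton X-100, 1% formaldehyde, 1 ug/ml Hoechst) and counted on 4× images, and relative viability is the treated-to-vehicle nuclei ratio, as the median of duplicate plates.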

Bemcentinib + AZD7762 = compound: Nc1nc(Nc2ccc3c(c2)CC[C@@H](N2CCCC2)CC3)nn1-c1cc2c(nn1)-c1ccccc1CCC2 [Bemcentinib] + NC(=O)Nc1cc(-c2cccc(F)c2)sc1C(=O)N[C@H]1CCCNC1 [AZD7762] (partner 0.2 µM)
Procedure, shortened: as §1

Bemcentinib + Navitoclax = compound: Nc1nc(Nc2ccc3c(c2)CC[C@@H](N2CCCC2)CC3)nn1-c1cc2c(nn1)-c1ccccc1CCC2 [Bemcentinib] + CC1(C)CCC(c2ccc(Cl)cc2)=C(CN2CCN(c3ccc(C(=O)NS(=O)(=O)c4ccc(N[C@H](CCN5CCOCC5)CSc5ccccc5)c(S(=O)(=O)C(F)(F)F)c4)cc3)CC2)C1 [Navitoclax] (partner 0.5 µM)
Procedure, shortened: as §1

Axitinib + Tozasertib = compound: CNC(=O)c1ccccc1Sc1ccc2c(/C=C/c3ccccn3)n[nH]c2c1 [Axitinib] + Cc1cc(Nc2cc(N3CCN(C)CC3)nc(Sc3ccc(NC(=O)C4CC4)cc3)n2)n[nH]1 [Tozasertib] (partner 0.1 µM)
Procedure, shortened: as §1

NCI-H838 was tested, and the relative viability ([1]; first compound 1 µM) was 0.909, the relative viability ([1]; first compound 3.162 µM) was 0.834 and the relative viability ([1]; first compound 10 µM) was 0.812. It also gave a relative viability ([1]; first compound 31.62 µM) of 0.694, a relative viability ([1]; first compound 100 µM) of 0.733 and a relative viability (Bemcentinib + AZD7762; first compound 0.04 µM) of 0.942. It also gave a relative viability (Bemcentinib + AZD7762; first compound 0.1265 µM) of 0.975, a relative viability (Bemcentinib + AZD7762; first compound 0.4 µM) of 1.02 and a relative viability (Bemcentinib + AZD7762; first compound 1.265 µM) of 0.998. It also gave a relative viability (Bemcentinib + AZD7762; first compound 4 µM) of 0.917, a relative viability (Bemcentinib + Navitoclax; first compound 0.04 µM) of 1.15 and a relative viability (Bemcentinib + Navitoclax; first compound 0.1265 µM) of 1.28. It also gave a relative viability (Bemcentinib + Navitoclax; first compound 0.4 µM) of 1.36, a relative viability (Bemcentinib + Navitoclax; first compound 1.265 µM) of 1.13 and a relative viability (Bemcentinib + Navitoclax; first compound 4 µM) of 1.36. It also gave a relative viability (Axitinib + Tozasertib; first compound 0.005 µM) of 0.305, a relative viability (Axitinib + Tozasertib; first compound 0.01581 µM) of 0.263 and a relative viability (Axitinib + Tozasertib; first compound 0.05 µM) of 0.265. It also gave a relative viability (Axitinib + Tozasertib; first compound 0.1581 µM) of 0.323 and a relative viability (Axitinib + Tozasertib; first compound 0.5 µM) of 0.323.
With LCLC-103H the relative viability ([1]; first compound 1 µM) was 0.971, the relative viability ([1]; first compound 3.162 µM) was 0.992 and the relative viability ([1]; first compound 10 µM) was 1.1. It also gave a relative viability ([1]; first compound 31.62 µM) of 0.931, a relative viability ([1]; first compound 100 µM) of 0.939 and a relative viability (Bemcentinib + AZD7762; first compound 0.04 µM) of 0.764. For the same cell line, the relative viability (Bemcentinib + AZD7762; first compound 0.1265 µM) was 0.818, the relative viability (Bemcentinib + AZD7762; first compound 0.4 µM) was 0.851 and the relative viability (Bemcentinib + AZD7762; first compound 1.265 µM) was 0.81. It also gave a relative viability (Bemcentinib + AZD7762; first compound 4 µM) of 0.852, a relative viability (Axitinib + Tozasertib; first compound 0.005 µM) of 0.52 and a relative viability (Axitinib + Tozasertib; first compound 0.01581 µM) of 0.551. The relative viability (Axitinib + Tozasertib; first compound 0.05 µM) was 0.432, the relative viability (Axitinib + Tozasertib; first compound 0.1581 µM) was 0.52 and the relative viability (Axitinib + Tozasertib; first compound 0.5 µM) was 0.519.
HARA showed a relative viability ([1]; first compound 1 µM) of 0.757, a relative viability ([1]; first compound 3.162 µM) of 0.794 and a relative viability ([1]; first compound 10 µM) of 0.856. It also gave a relative viability ([1]; first compound 31.62 µM) of 0.638, a relative viability ([1]; first compound 100 µM) of 0.519 and a relative viability (Bemcentinib + AZD7762; first compound 0.04 µM) of 0.326. It also gave a relative viability (Bemcentinib + AZD7762; first compound 0.1265 µM) of 0.26, a relative viability (Bemcentinib + AZD7762; first compound 0.4 µM) of 0.345 and a relative viability (Bemcentinib + AZD7762; first compound 1.265 µM) of 0.185. The relative viability (Bemcentinib + AZD7762; first compound 4 µM) was 0.258, the relative viability (Bemcentinib + Navitoclax; first compound 0.04 µM) was 1.18 and the relative viability (Bemcentinib + Navitoclax; first compound 0.1265 µM) was 1.18. The relative viability (Bemcentinib + Navitoclax; first compound 0.4 µM) was 1.2, the relative viability (Bemcentinib + Navitoclax; first compound 1.265 µM) was 1.13 and the relative viability (Bemcentinib + Navitoclax; first compound 4 µM) was 1.16. For the same cell line, the relative viability (Axitinib + Tozasertib; first compound 0.005 µM) was 0.125, the relative viability (Axitinib + Tozasertib; first compound 0.01581 µM) was 0.0963 and the relative viability (Axitinib + Tozasertib; first compound 0.05 µM) was 0.0847. For the same cell line, the relative viability (Axitinib + Tozasertib; first compound 0.1581 µM) was 0.106 and the relative viability (Axitinib + Tozasertib; first compound 0.5 µM) was 0.123.
For ABC-1, the relative viability ([1]; first compound 1 µM) was 0.945, the relative viability ([1]; first compound 3.162 µM) was 0.983 and the relative viability ([1]; first compound 10 µM) was 0.732. It also gave a relative viability ([1]; first compound 31.62 µM) of 0.682, a relative viability ([1]; first compound 100 µM) of 0.661 and a relative viability (Bemcentinib + AZD7762; first compound 0.1265 µM) of 0.937. The relative viability (Bemcentinib + AZD7762; first compound 0.4 µM) was 0.799, the relative viability (Bemcentinib + AZD7762; first compound 1.265 µM) was 0.816 and the relative viability (Bemcentinib + AZD7762; first compound 4 µM) was 1.09. It also gave a relative viability (Axitinib + Tozasertib; first compound 0.005 µM) of 0.19, a relative viability (Axitinib + Tozasertib; first compound 0.01581 µM) of 0.226 and a relative viability (Axitinib + Tozasertib; first compound 0.05 µM) of 0.14. For the same cell line, the relative viability (Axitinib + Tozasertib; first compound 0.1581 µM) was 0.179 and the relative viability (Axitinib + Tozasertib; first compound 0.5 µM) was 0.183.
Cell Line NCI-H727 has a relative viability ([1]; first compound 1 µM) of 0.55, a relative viability ([1]; first compound 3.162 µM) of 0.533 and a relative viability ([1]; first compound 10 µM) of 0.512. For the same cell line, the relative viability ([1]; first compound 31.62 µM) was 0.415, the relative viability ([1]; first compound 100 µM) was 0.492 and the relative viability (Bemcentinib + AZD7762; first compound 0.04 µM) was 0.527. It also gave a relative viability (Bemcentinib + AZD7762; first compound 0.1265 µM) of 0.575, a relative viability (Bemcentinib + AZD7762; first compound 0.4 µM) of 0.483 and a relative viability (Bemcentinib + AZD7762; first compound 1.265 µM) of 0.495. It also gave a relative viability (Bemcentinib + AZD7762; first compound 4 µM) of 0.569, a relative viability (Bemcentinib + Navitoclax; first compound 0.04 µM) of 0.348 and a relative viability (Bemcentinib + Navitoclax; first compound 0.1265 µM) of 0.389. It also gave a relative viability (Bemcentinib + Navitoclax; first compound 0.4 µM) of 0.435, a relative viability (Bemcentinib + Navitoclax; first compound 1.265 µM) of 0.382 and a relative viability (Bemcentinib + Navitoclax; first compound 4 µM) of 0.522. It also gave a relative viability (Axitinib + Tozasertib; first compound 0.005 µM) of 0.543, a relative viability (Axitinib + Tozasertib; first compound 0.01581 µM) of 0.628 and a relative viability (Axitinib + Tozasertib; first compound 0.05 µM) of 0.625. It also gave a relative viability (Axitinib + Tozasertib; first compound 0.1581 µM) of 0.674 and a relative viability (Axitinib + Tozasertib; first compound 0.5 µM) of 0.746.
In the case of NCI-H1944, the relative viability ([1]; first compound 1 µM) is reported as 0.866, the relative viability ([1]; first compound 3.162 µM) is reported as 0.762 and the relative viability ([1]; first compound 10 µM) is reported as 0.72. For the same cell line, the relative viability ([1]; first compound 100 µM) was 0.75, the relative viability (Bemcentinib + AZD7762; first compound 0.04 µM) was 0.645 and the relative viability (Bemcentinib + AZD7762; first compound 0.1265 µM) was 0.563. It also gave a relative viability (Bemcentinib + AZD7762; first compound 0.4 µM) of 0.488, a relative viability (Bemcentinib + AZD7762; first compound 1.265 µM) of 0.452 and a relative viability (Bemcentinib + AZD7762; first compound 4 µM) of 0.32. It also gave a relative viability (Bemcentinib + Navitoclax; first compound 0.04 µM) of 0.964, a relative viability (Bemcentinib + Navitoclax; first compound 0.1265 µM) of 1.02 and a relative viability (Bemcentinib + Navitoclax; first compound 0.4 µM) of 1.04. It also gave a relative viability (Bemcentinib + Navitoclax; first compound 1.265 µM) of 0.977, a relative viability (Bemcentinib + Navitoclax; first compound 4 µM) of 1.08 and a relative viability (Axitinib + Tozasertib; first compound 0.005 µM) of 0.238. For the same cell line, the relative viability (Axitinib + Tozasertib; first compound 0.01581 µM) was 0.258, the relative viability (Axitinib + Tozasertib; first compound 0.05 µM) was 0.264 and the relative viability (Axitinib + Tozasertib; first compound 0.1581 µM) was 0.263. For the same cell line, the relative viability (Axitinib + Tozasertib; first compound 0.5 µM) was 0.297.
NCI-H1975 gave a relative viability ([1]; first compound 1 µM) of 0.58, a relative viability ([1]; first compound 3.162 µM) of 0.445 and a relative viability ([1]; first compound 10 µM) of 0.385. The relative viability ([1]; first compound 31.62 µM) was 0.346, the relative viability ([1]; first compound 100 µM) was 0.299 and the relative viability (Bemcentinib + AZD7762; first compound 0.04 µM) was 0.691. For the same cell line, the relative viability (Bemcentinib + AZD7762; first compound 0.1265 µM) was 0.702, the relative viability (Bemcentinib + AZD7762; first compound 0.4 µM) was 0.67 and the relative viability (Bemcentinib + AZD7762; first compound 1.265 µM) was 0.687. For the same cell line, the relative viability (Bemcentinib + AZD7762; first compound 4 µM) was 0.656, the relative viability (Bemcentinib + Navitoclax; first compound 0.04 µM) was 1.03 and the relative viability (Bemcentinib + Navitoclax; first compound 0.1265 µM) was 1.23. The relative viability (Bemcentinib + Navitoclax; first compound 0.4 µM) was 1.12, the relative viability (Bemcentinib + Navitoclax; first compound 1.265 µM) was 1.05 and the relative viability (Bemcentinib + Navitoclax; first compound 4 µM) was 1.2. The relative viability (Axitinib + Tozasertib; first compound 0.005 µM) was 0.79, the relative viability (Axitinib + Tozasertib; first compound 0.01581 µM) was 0.819 and the relative viability (Axitinib + Tozasertib; first compound 0.05 µM) was 0.719. For the same cell line, the relative viability (Axitinib + Tozasertib; first compound 0.1581 µM) was 0.875 and the relative viability (Axitinib + Tozasertib; first compound 0.5 µM) was 0.867.
